Measurements published in patent US20230009626A1 (ICHNOS SCIENCES S.A., priority 2018, published 2023).

Biological target: HPK1 (MAP4K1) (Homo sapiens, UniProt Q92918)
Assay: FRET Assay for HPK1 (MAP4K1): one step binding assay, displacement of labeled tracer
Settings: for inhibition at 1 µM: 1 μM compound; for inhibition at 1 µM / inhibition at 10 µM: FRET ratio 665/620, percent of control; for inhibition at 10 µM: 10 μM compound; for IC50: dose response curve, nonlinear regression
Excerpt: FRET Assay for HPK1 (MAP4K1):
This is a one step binding assay based on the binding and displacement of the labeled tracer, where compound addition is followed by addition of the anti-GST tagged europium (Eu) as the donor and Alexa Fluor-labeled tracer as the acceptor. Simultaneous binding of both the tracer and GST-antibody to the kinase domain of HPK1 results in a high degree of FRET (fluorescence resonance energy transfer) from the anti-GST tagged europium (Eu) fluorophore to the Alexa Fluor® 647 fluorophore on the kinase tracer and this signal is reduced in presence of the inhibitor that can be measured.
Test compounds or reference compounds such as Sunitinib (Sigma) were dissolved in dimethylsulfoxide (DMSO) to prepare 10.0 mM stock solutions and diluted to the desired concentration. The final concentration of DMSO in the reaction was 3% (v/v). The assay mixture was prepared by mixing 4 nM of the Eu-Anti-GST Antibody and 10 nM MAP4K-1 enzyme in the Kinase buffer containing 50mM HEPES (pH 7.5), 10 mM MgCl2, 1 mM EGTA, 0.01% Brij-35 with or without the desired concentration of the compound. The reaction was incubated on ice for 15 mins. The pre-incubation step was followed by addition of the 20 nM Kinase Tracer 222 into the reaction mixture. After shaking for 5 min the reaction was further incubated for 1 hour at room temperature and this was kept at 4° C. and read on ARTEMIS reader as per the kit instructions (Thermo). […] The activity was calculated as percent of control reaction. IC50 values were calculated from dose response curve by nonlinear regression analysis using GraphPad Prism software.
Percentage inhibition at concentrations of 1.0 μM and 10.0 μM are given in the table along with IC50 (nM) details for selected examples.

Chain of HPK1 (MAP4K1) (Q92918 whole entry): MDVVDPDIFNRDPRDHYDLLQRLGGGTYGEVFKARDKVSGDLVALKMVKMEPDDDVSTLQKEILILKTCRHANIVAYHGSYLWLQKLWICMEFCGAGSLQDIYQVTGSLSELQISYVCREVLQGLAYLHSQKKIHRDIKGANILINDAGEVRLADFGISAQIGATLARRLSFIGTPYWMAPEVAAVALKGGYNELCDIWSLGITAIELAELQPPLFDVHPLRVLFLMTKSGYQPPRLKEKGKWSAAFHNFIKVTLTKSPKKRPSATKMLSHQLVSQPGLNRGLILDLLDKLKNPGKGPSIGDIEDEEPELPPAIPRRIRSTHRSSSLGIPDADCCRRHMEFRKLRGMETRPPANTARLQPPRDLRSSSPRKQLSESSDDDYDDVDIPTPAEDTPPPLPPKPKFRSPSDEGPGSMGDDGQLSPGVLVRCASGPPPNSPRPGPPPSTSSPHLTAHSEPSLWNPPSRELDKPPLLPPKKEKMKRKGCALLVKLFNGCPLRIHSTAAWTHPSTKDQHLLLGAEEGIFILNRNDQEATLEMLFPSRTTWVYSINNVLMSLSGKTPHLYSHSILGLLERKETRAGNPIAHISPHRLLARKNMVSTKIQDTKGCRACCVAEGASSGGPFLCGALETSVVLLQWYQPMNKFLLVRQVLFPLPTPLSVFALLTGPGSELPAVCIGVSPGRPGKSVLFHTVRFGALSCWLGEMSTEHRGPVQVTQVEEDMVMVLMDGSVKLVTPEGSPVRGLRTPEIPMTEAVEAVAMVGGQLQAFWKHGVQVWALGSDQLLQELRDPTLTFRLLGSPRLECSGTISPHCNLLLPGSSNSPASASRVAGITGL

SMILES	inhibition at 1 µM	inhibition at 10 µM	IC50
COc1cccc(F)c1-c1cc2c(cn1)NC(=O)/C2=C(/C)Nc1cnn(C2CCOCC2)c1 [Example 44, (Z)-5-(2-Fluoro-6-methoxyphenyl)-3-(1-((1-(tetrahydro-2H-pyran-4-yl)-1H-pyrazol-4-yl)amino)ethylidene)-1H-pyrrolo[2,3-c]pyridin-2(3H)-one]	91.4%	93.1%	< 50 nM
C/C(Nc1cnn(C)c1)=C1/C(=O)Nc2cnc(-c3cnc4c(c3C)NCCO4)cc21 [Example 45, (Z)-3-(1-((1-Methyl-1H-pyrazol-4-yl)amino)ethylidene)-5-(8-methyl-2,3-dihydro-1H-pyrido[2,3-b][1,4]oxazin-7-yl)-1H-pyrrolo[2,3-c]pyridin-2(3H)-one]	72.4%	86%	100 to 500 nM
C/C(Nc1ccc(N2CCNCC2)nc1)=C1/C(=O)Nc2cnc(-c3cnccc3C)cc21 [Example 46, (Z)-5-(4-Methylpyridin-3-yl)-3-(1-((6-(piperazin-1-yl)pyridin-3-yl)amino)ethylidene)-1H-pyrrolo[2,3-c]pyridin-2(3H)-one]	85.3%	87.3%	< 50 nM
CC/C(Nc1cnn(C)c1)=C1/C(=O)Nc2cnc(-c3cnccc3C)cc21 [Example 47, (Z)-3-(1-((1-Methyl-1H-pyrazol-4-yl)amino)propylidene)-5-(4-methylpyridin-3-yl)-1H-pyrrolo[2,3-c]pyridin-2(3H)-one]	83.5%	82.5%	< 50 nM
Cc1ccncc1-c1cc2c(cn1)NC(=O)/C2=C(\Nc1cnn(C)c1)C(C)C [Example 48, (Z)-3-(2-Methyl-1-((1-methyl-1H-pyrazol-4-yl)amino)propylidene)-5-(4-methylpyridin-3-yl)-1H-pyrrolo[2,3-c]pyridin-2(3H)-one]	77.2%	84.8%	50 to 100 nM
C/C(Nc1cnn(C2CC2)c1)=C1/C(=O)Nc2cnc(-c3cnccc3C)cc21 [Example 49, (Z)-3-(1-((1-Cyclopropyl-1H-pyrazol-4-yl)amino)ethylidene)-5-(4-methylpyridin-3-yl)-1H-pyrrolo[2,3-c]pyridin-2(3H)-one]	64.3%	74.2%	< 50 nM
CCn1cc(N/C(C)=C2\C(=O)Nc3cnc(-c4cnccc4C)cc32)cn1 [Example 50, (Z)-3-(1-((1-Ethyl-1H-pyrazol-4-yl)amino)ethylidene)-5-(4-methylpyridin-3-yl)-1H-pyrrolo[2,3-c]pyridin-2(3H)-one]	82.8%	87.9%	< 50 nM
C/C(Nc1cnn(C)c1)=C1/C(=O)Nc2cnc(-c3cncc(N)c3C)cc21 [Example 51, (Z)-5-(5-Amino-4-methylpyridin-3-yl)-3-(1-((1-methyl-1H-pyrazol-4-yl)amino)ethylidene)-1H-pyrrolo[2,3-c]pyridin-2(3H)-one]	81.2%	84.2%	< 50 nM
C/C(Nc1cnn(C2COC2)c1)=C1/C(=O)Nc2cnc(-c3cnccc3C)cc21 [Example 52, (Z)-5-(4-Methylpyridin-3-yl)-3-(1-((1-(oxetan-3-yl)-1H-pyrazol-4-yl)amino)ethylidene)-1H-pyrrolo[2,3-c]pyridin-2(3H)-one]	86.1%	84.9%	< 50 nM
C/C(Nc1cnn(C(C)(C)C#N)c1)=C1/C(=O)Nc2cnc(-c3cnccc3C)cc21 [Example 53, (Z)-2-Methyl-2-(4-((1-(5-(4-methylpyridin-3-yl)-2-oxo-1H-pyrrolo[2,3-c]pyridin-3(2H)-ylidene)ethyl)amino)-1H-pyrazol-1-yl)propanenitrile]	87.1%	85.4%	< 50 nM
C/C(Nc1ccn(C)n1)=C1/C(=O)Nc2cnc(-c3cnccc3C)cc21 [Example 54, (Z)-3-(1-((1-methyl-1H-pyrazol-3-yl)amino)ethylidene)-5-(4-methylpyridin-3-yl)-1H-pyrrolo[2,3-c]pyridin-2(3H)-one]	88.5%	86.1%	< 50 nM
